# Results published in PubChem BioAssay (NCI).
# Values joined by “and” are separate entries in the source; they are usually repeats but may differ in a detail not shown here. Equal values may be shown once.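 Results reflect a 48-hour exposure of cells in 96-well plates to compound at five concentrations. Here, GI50 denotes the concentration required for 50% inhibition of growth. TGI: concentration producing complete growth inhibition.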
# Assays:
# Experiment in all cases: NCI anticancer screen, dose series, 48 h
# CCRF-CEM leukemia = system: CCRF-CEM leukemia
# HCC-2998 colon = system: HCC-2998 colon
# HT29 colon = system: HT29 colon
# M14 melanoma = system: M14 melanoma
# OVCAR-5 ovarian = system: OVCAR-5 ovarian
# RPMI-8226 leukemia = system: RPMI-8226 leukemia
# SF-539 CNS = system: SF-539 CNS
# SK-MEL-28 melanoma = system: SK-MEL-28 melanoma
# UACC-62 melanoma = system: UACC-62 melanoma
# UO-31 renal = system: UO-31 renal
Compound,GI50 (CCRF-CEM leukemia),TGI (CCRF-CEM leukemia),GI50 (HCC-2998 colon),TGI (HCC-2998 colon),GI50 (HT29 colon),TGI (HT29 colon),GI50 (M14 melanoma),TGI (M14 melanoma),GI50 (OVCAR-5 ovarian),TGI (OVCAR-5 ovarian),GI50 (RPMI-8226 leukemia),TGI (RPMI-8226 leukemia),GI50 (SF-539 CNS),TGI (SF-539 CNS),GI50 (SK-MEL-28 melanoma),TGI (SK-MEL-28 melanoma),GI50 (UACC-62 melanoma),TGI (UACC-62 melanoma),GI50 (UO-31 renal),TGI (UO-31 renal)
NCCCCCNc1noc(Cc2c[nH]c3cc(Br)ccc23)n1,1.81 µM,8.2 µM,2.84 µM,14.7 µM,1.08 µM,10.3 µM,0.445 µM,10.3 µM,5.29 µM,24.6 µM,2.88 µM,25.2 µM,2.15 µM,5.84 µM,3.93 µM,19.3 µM,0.551 µM,10.1 µM,3.46 µM,25.3 µM
CN(C)C(=O)OCc1nc2c(N3CCOCC3)nc(-c3ccccc3)nc2n1C,0.273 µM,1.55 µM,1.56 µM,3.1 µM,0.476 µM,1.78 µM,0.609 µM,1.9 µM,1.6 µM,3.26 µM,0.189 µM,0.675 µM,1.4 µM,2.72 µM,1.55 µM,2.9 µM,1.39 µM,2.73 µM,0.373 µM,1.55 µM
Cc1c(Cl)c(=O)oc2cc(OC/C=C3\CCC(=O)O3)ccc12,12.5 µM,61.3 µM,18 µM,41.2 µM,17.2 µM,43.3 µM,13.3 µM,31.7 µM,27.8 µM,80 µM,7.63 µM,42.6 µM,17.4 µM,56.5 µM,19.7 µM,50 µM,16.8 µM,33.9 µM,12.1 µM,25 µM
C[N+](C)(C)CC1CCC(C[N+](C)(C)C)C1=O (stereo unspecified),0.258 µM,1.47 µM,–,22.5 µM,–,3.4 µM,–,3.35 µM,–,14.4 µM,–,27.2 µM,–,15.5 µM,5.99 µM,11.1 µM,–,17.9 µM,–,8.51 µM
COC(=O)CCC(=O)N1C/C(=C\c2ccccc2)C(=O)/C(=C/c2ccccc2)C1,–,> 100 µM,–,3.06 µM,–,4.09 µM,–,3.93 µM,–,6.24 µM,–,> 100 µM,–,7.53 µM,–,4.24 µM,–,3.61 µM,–,3.97 µM
CC(C)c1ccc(C2NC(=S)NC3=C2c2ccccc2C3=O)cc1 (stereo unspecified),–,> 68 µM,–,> 51.7 µM,–,> 59 µM,–,> 57 µM,–,> 64.2 µM,–,> 62.4 µM,–,37.8 µM,–,57.9 µM,–,> 52.8 µM,–,> 58.2 µM
CC1=CC(C)(c2c[nH]c3ccccc23)CC(C)(C)c2c1[nH]c1ccccc21 (stereo unspecified),–,31.7 µM,–,30.4 µM,–,28.6 µM,–,46.9 µM,–,36.4 µM,–,38.9 µM,–,> 100 µM,–,30.1 µM,–,36.6 µM,–,27.3 µM
O=C1/C(=C/c2ccc3c(c2)OCCO3)CCC/C1=C\c1ccc2c(c1)OCCO2,–,> 100 µM,–,> 100 µM,–,52 µM,–,41.3 µM,–,> 100 µM,–,45.8 µM,–,38.6 µM,–,77.2 µM,–,61.3 µM,–,> 100 µM
C1OC1CN1CCN(CC2CO2)CC1 (stereo unspecified),–,> 100 µM,–,> 100 µM,–,> 100 µM,–,> 100 µM,–,> 100 µM,–,> 100 µM,–,> 100 µM,–,> 100 µM,–,> 68.5 µM,–,> 100 µM
O=C(O)[C@@H]1OCCOCCO[C@@H](C(=O)O)[C@H](C(=O)O)OCCOCCO[C@H]1C(=O)O,–,> 73.6 µM,–,> 100 µM,–,> 100 µM,–,> 100 µM,–,> 100 µM,–,> 60.9 µM,–,> 100 µM,–,> 100 µM,–,> 100 µM,–,> 100 µM
CCCOc1cc2ccccc2cc1C(=O)Nc1nc(NC)c2c(ccc3nccc32)[nH]1,0.311 µM,1.04 µM,1.11 µM,2.41 µM,0.208 µM,0.446 µM,0.444 µM,1.98 µM,1.4 µM,3 µM,0.402 µM,1.83 µM,0.623 µM,2.06 µM,1.14 µM,2.43 µM,0.556 µM,2.12 µM,1.17 µM,2.59 µM
Cc1ccc(S(=O)(=O)OCC#CCOS(=O)(=O)c2ccc(C)cc2)cc1,1.96 µM,5.79 µM,2.85 µM,8.73 µM,1.87 µM,4.17 µM,2.59 µM,7.65 µM,4.99 µM,14.5 µM,1.85 µM,4.42 µM,2.5 µM,7.01 µM,2.69 µM,7.8 µM,3.96 µM,12.6 µM,0.228 µM,0.538 µM
CN1CCN(c2ccc(OC(F)(F)F)c(Nc3ncc4c(n3)-c3c(c(C(N)=O)nn3CCO)CC4)c2)CC1,0.0197 µM and 0.0283 µM,28.5 µM,0.0487 µM and 0.174 µM,18.7 µM and > 4.38 µM,0.0349 µM and 0.0348 µM,> 82.9 µM,0.0404 µM and 0.0428 µM,–,0.055 µM and 0.0577 µM,51.8 µM and > 10 µM,0.774 µM and 0.324 µM,35 µM and > 10 µM,0.0363 µM and 0.0682 µM,12.4 µM and > 4.8 µM,0.738 µM,> 10 µM,0.0454 µM and 0.123 µM,21.1 µM and > 4.66 µM,2.88 µM and 2.28 µM,38.2 µM and > 9.18 µM
O=C(CSCC(=O)N/N=C/c1ccccc1O)N/N=C\c1ccccc1O,0.433 µM,> 100 µM,1.61 µM,34.4 µM,5.64 µM,> 100 µM,1.51 µM,12.5 µM,5.11 µM,> 100 µM,3.49 µM,> 100 µM,2.1 µM,23 µM,8.05 µM,> 100 µM,1.61 µM,7.13 µM,1.06 µM,37.3 µM
Cc1cc(C(=O)Nc2n[nH]c3ccccc23)n[nH]1,> 100 µM,> 100 µM,50.6 µM,> 100 µM,> 100 µM,> 100 µM,> 100 µM,> 100 µM,67.9 µM,> 100 µM,> 100 µM,> 100 µM,> 100 µM,> 100 µM,> 100 µM,> 100 µM,> 100 µM,> 100 µM,50.4 µM,> 100 µM
